Data taken from patent US12527884B2, “Use of cyclodextrins as a radiostabilizer” (GE Healthcare Limited, priority 2019, dated 2026).

Tests used:
[1] = Aqueous solubility of flurpiridaz with HPbCD; assay type: physicochemical
[2] = Radiochemical purity (RCP) and [18F]fluoride of formulated [18F]flurpiridaz during storage (radio TLC or HPLC); assay type: physicochemical
Procedure: Radiochemical purity (RCP) is determined using radio TLC or HPLC and can be defined as the ratio of the (radio-labelled) drug substance peak to the total (radio-labelled) peaks in the chromatogram. If one manufactures a radiopharmaceutical with high radioactive concentration (RAC), the drop in RCP during storage is likely to be higher than at lower RAC due to more radiolysis. High radioactivity results in the drug substance destroying itself (i.e. radiolysis). The most efficient stabilizer can be identified by preparing different formulations of radiopharmaceuticals at similar RAC and comparing the drop in RCP over time, typically 8-10 hours for ^18F compounds.
The first 45 mL product vial was composed of water (42 mL), ethanol (3 mL), calcium disodium edetate (0.25 mg/mL), ascorbic acid (50 mg/mL) and sodium hydroxide (7.5 mg/mL). […]

aqueous solubility [1]: improves | radiostability ([2]; 30 mg/mL ascorbic acid and 40 mg/mL HPbCD vs 50 mg/mL ascorbic acid without HPbCD): equal or better | change in RCP over 4 to 10 h (FIG. 2) ([2]; 30 to 50 mg/mL ascorbic acid (pH ~6), with or without 40-47 mg/mL HPbCD, ca. 7% (v/v) ethanol, 0-21% (v/v) oxygen headspace): reduction
SMILES: CC(C)(C)n1ncc(OCc2ccc(COCCF)cc2)c(Cl)c1=O [[^18F]flurpiridaz, flurpiridaz]
